Results reported in publication PMC7329766, “Synthesis of the Thomsen-Friedenreich-antigen (TF-antigen) and binding of Galectin-3 to TF-antigen presenting neo-glycoproteins” (Glycoconjugate Journal, 2020).

B1: BgaC (β-galactosidase) (Niallia circulans; E233G) (protein)
chain: MSQLTYDDSFLLDGKEIRLLSGAMHYFRTVPEYWEDRLLKLKACGFNTVETYVAWNLHEPEEGQFVFEGIADIVRFIKTAEKVGLHVIVRPGPFICAEWEFGGFPYWLLTVPNIKLRCFNQPYLEKVDAYFDVLFERLRPLLSSNGGPIIALQIENEYGSFGNDQKYLQYLRDGIKKRVGNELLFTSDGPEPSMLSGGMIEGIFETVNFGSRAESAFAQLKQYQPNAPLMCMGFWHGWFDHWGEEHHTRSAESVVETLEEILKQNGSVNFYMAHGGTNFGFYNGANHNETDYQPTITSYDYDGLLTESGDVTEKFYAVRKVFEKYVDLPELNLPAPIPKRLFGKVKFTEHAGLLDSLHRISTPQKSEAPLPMEKYGQAYGFIVYETTIKGAYGKQALTVQDIHDRGQVYVNGEYVGIVERNRGCSRLVVELTEEESKLQIIVENMGRINYGPFVVDYKGITEGVRLGNQFLFDWTVYPLPLKDLSSLEFTADEVKENFPYFHKGILTVDKAADTFIDLSEWTKGVVFVNGHHLGRYWEIGPQQTLYVPAPFLQEGENEIILLELHKHHQSVTFVDTPVLGAIPKTP
notes: recombinant, plasmid pETDuet-1, E. coli BL21 (DE3), IMAC purified

Assays:
human galectin-3 (Gal-3) = molecular target: T1, human galectin-3 (Gal-3) (Homo sapiens, UniProt P17931); test: competitive enzyme-linked lectin assay, inhibition of Gal-3 binding to immobilized asialofetuin
T1 construct: gene LGALS3; N-terminal His6-tag (kept, used for detection), expressed in E. coli Rosetta (DE3) pLysS, IMAC purified

[1] = substrate: OC[C@H]1O[C@H](F)[C@H](O)[C@@H](O)[C@H]1O; test: discontinuous HPLC assay, glycosynthase reaction; type: biochemical, Niallia circulans; settings: donor substrate, acceptor GalNAc(α1-EG3-azide fixed at 5 mM), 50 mM HEPES pH 7.2, 30 °C, text gives 0.22 mM for the donor, Fig. 2 legend prints 0.22 M and assigns it to panel b (acceptor)

T1 sequence (P17931 whole entry): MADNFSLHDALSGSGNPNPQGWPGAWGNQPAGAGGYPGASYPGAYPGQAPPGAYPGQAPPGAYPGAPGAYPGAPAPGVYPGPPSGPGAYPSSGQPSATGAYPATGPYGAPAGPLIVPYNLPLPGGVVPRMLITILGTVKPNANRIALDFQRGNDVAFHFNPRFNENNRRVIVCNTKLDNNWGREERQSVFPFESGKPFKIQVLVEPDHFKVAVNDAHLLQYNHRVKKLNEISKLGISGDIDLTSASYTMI

Row | Molecule | IC50 (human galectin-3 (Gal-3)) [µM] | Km [1] [µM]
1 | CC(=O)N[C@H]1[C@@H](OCCOCCOCCN=[N+]=[N-])O[C@H](CO)[C@H](O)[C@@H]1O[C@@H]1O[C@H](CO)[C@H](O)[C@H](O)[C@H]1O [compound 6, TF-antigen-azide] | 1560 ± 92.6 | –
2 | B1 | – | 220
